Measurements published in patent US20170333591A9, “ABSORBENT ARTICLE COMPRISING MALODOR REDUCTION COMPOSITIONS” (The Procter & Gamble Company, priority 2014, published 2017).

experiment: Log of liquid dish neat product liquid-air partition coefficient; format: physicochemical; details: not given

Row | Compound | Comment Code: Log of liquid dish neat product liquid-air partition coefficient
1 | O=COCCc1ccccc1 [Material 956] | K (Log of liquid dish neat product liquid-air partition coefficient greater than or equal to 7)
2 | N#C/C=C/c1ccccc1 [Material 556] | K (Log of liquid dish neat product liquid-air partition coefficient greater than or equal to 7)
3 | CC1CCOC(c2ccccc2)C1 (stereo not drawn) [Material 420] | K (Log of liquid dish neat product liquid-air partition coefficient greater than or equal to 7)
4 | CC1=CCCC2(C)CCC(C(C)(C)O)CC12 (stereo not drawn) [Material 712] | K (Log of liquid dish neat product liquid-air partition coefficient greater than or equal to 7)
5 | CCC(=O)N(CC)c1cccc(C)c1 [Material 755] | K (Log of liquid dish neat product liquid-air partition coefficient greater than or equal to 7)
6 | C=C(C=O)C(C)CCC=C(C)C (stereo not drawn) [Material 819] | K (Log of liquid dish neat product liquid-air partition coefficient greater than or equal to 7)
7 | C=C(C)[C@@H]1CCC2=CC(=O)C[C@@H](C)[C@]2(C)C1 [Material 48] | K (Log of liquid dish neat product liquid-air partition coefficient greater than or equal to 7)
8 | CCCc1ccc(O)c(OC)c1 [Material 440] | K (Log of liquid dish neat product liquid-air partition coefficient greater than or equal to 7)

same assay, conditions: code letter within the Comment Code cell

Row | Compound | Log of liquid dish neat product liquid-air partition coefficient (Comment Code K/L)
9 | CCCCCCCCCCCCCC=O [Material 36] | K (Log of liquid dish neat product liquid-air partition coefficient greater than or equal to 7)
10 | COC(OC)C(C)c1ccccc1 (stereo not drawn) [Material 256] | K (Log of liquid dish neat product liquid-air partition coefficient greater than or equal to 7)
11 | CC(=O)OCCC1=CCC2CC1C2(C)C (stereo not drawn) [Material 47] | K (Log of liquid dish neat product liquid-air partition coefficient greater than or equal to 7)
12 | CCCCCCCCCC(C)C=O (stereo not drawn) [Material 103] | K (Log of liquid dish neat product liquid-air partition coefficient greater than or equal to 7)
13 | C=C(C)[C@@H]1CCC2=CC(=O)C[C@@H](C)[C@]2(C)C1 [Material 48] | K (Log of liquid dish neat product liquid-air partition coefficient greater than or equal to 7)
14 | CCCCCCCCCCCC(=O)OC(C)C [Material 197] | K (Log of liquid dish neat product liquid-air partition coefficient greater than or equal to 7)

same assay, conditions: code letters K/L of the Comment Code

Row | Compound | Log of liquid dish neat product liquid-air partition coefficient (Comment Code)
15 | CC(=O)c1cc(C(C)(C)C)cc2c1CCC2(C)C [Material 563] | K (Log of liquid dish neat product liquid-air partition coefficient greater than or equal to 7)
16 | C=C(C)C1CC=C(CO)CC1 (stereo not drawn) [Material 948] | K (Log of liquid dish neat product liquid-air partition coefficient greater than or equal to 7)
17 | CC(C)=CCCC(C)=C1CC=C(C)CC1 [Material 608] | K (Log of liquid dish neat product liquid-air partition coefficient greater than or equal to 7)
18 | CC1=CCCC2(C)CCC(C(C)(C)O)CC12 (stereo not drawn) [Material 712] | K (Log of liquid dish neat product liquid-air partition coefficient greater than or equal to 7)
19 | C/C(=C/C#N)CCc1ccccc1 [Material 892] | K (Log of liquid dish neat product liquid-air partition coefficient greater than or equal to 7)
20 | CC(=O)C=CC1C(C)=CCC(C)C1(C)C (stereo not drawn) [Material 704] | K (Log of liquid dish neat product liquid-air partition coefficient greater than or equal to 7)
21 | C=CCOC(=O)CCC1CCCCC1 [Material 746] | K (Log of liquid dish neat product liquid-air partition coefficient greater than or equal to 7)
